Measurements published in US12297192B2, “Crystal form of pyrimidine sulfonamide compound and preparation method therefor” (WUXI BIOCITY BIOPHARMACEUTICS CO., LTD., priority 2019, dated 2025).

Target: T1, Human Pregnane X Receptor (PXR) (Homo sapiens, UniProt O75469)
T1 construct: host or cells: DPX2 cells
T1 sequence (O75469 1-434): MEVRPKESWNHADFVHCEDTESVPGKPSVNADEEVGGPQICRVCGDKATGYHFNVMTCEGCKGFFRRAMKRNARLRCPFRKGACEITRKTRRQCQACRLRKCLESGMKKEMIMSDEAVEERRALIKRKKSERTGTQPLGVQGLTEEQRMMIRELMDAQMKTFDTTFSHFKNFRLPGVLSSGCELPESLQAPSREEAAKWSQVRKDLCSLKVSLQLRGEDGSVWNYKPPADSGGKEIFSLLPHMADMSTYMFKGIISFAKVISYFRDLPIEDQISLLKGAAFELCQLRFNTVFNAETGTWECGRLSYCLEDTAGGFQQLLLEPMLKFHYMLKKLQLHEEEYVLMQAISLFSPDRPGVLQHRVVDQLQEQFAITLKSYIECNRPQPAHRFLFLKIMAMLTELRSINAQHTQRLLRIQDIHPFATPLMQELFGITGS
Assay: Human pregnane X receptor (PXR) test, induction of PXR-mediated CYP3A expression in DPX2 cells
Assay type: in vitro ADME
Description: To assess the induction of PXR-mediated CYP3A expression by the compounds.
Experimental Protocol: • 1. The DPX2 cells was thawed under aseptic conditions. • 2. The DPX2 cytosol was distributed in 96-well plates (100 μl/well) and placed the plates in a 5% CO2/37° C. incubator overnight. • 3. The quantitative feeding medium was thawed in a 37° C. water bath. The positive control rifampicin was thawed at room temperature. A series of the test compound and positive control dilutions were prepared in quantitative feeding medium. The medium was carefully aspirated and discarded from each well, without disturbing the cells during the aspiration process. […] Enzyme activity test: • (1) 7 μl of Luciferin-IPA was added to 7 ml of quantitative feeding medium, inverted to mix, and poured into the Luciferin-IPA reagent tank. • (2) The 96-well plate was taken out of the incubator and the medium was carefully aspirated from each well. […] The plate was placed back to the incubator for 60 minutes. • (7) 40 μl of Luciferin detection reagent/P450-Glo buffer was added to each well of the replicate plate, stirred and incubated for 20 minutes at room temperature. • (8) After incubation with Luciferin detection reagent for 20 minutes, a luminometer (set for 1-5 seconds. Read out time) was used to determine the luminescence of each well of the white 96-well plate. […] The fluorescence intensity of each well was measured. […]

Structure (SMILES) | Induction of PXR-mediated CYP3A expression (in words)
CCCNS(=O)(=O)Nc1ncnc(OCCOc2ncc(Br)cn2)c1-c1ccc(Br)cc1 [Macitentan, reference compound] | strong induction
COCCNS(=O)(=O)Nc1ncnc(OCCOc2ncc(Br)cn2)c1-c1ccc2c(c1)OCO2 [Compound of formula (I)] | weak induction
